From patent US7687547B2, “Diphenyl ether antimicrobial compounds” (Research Foundation of State University of New York, priority 2004, dated 2010)
pIC50: −log10 of the molar value. Values after ≈ are worked out from the molar mass of the structure shown. Where two headings read alike, the source gives them in different places.

Tests used:
[1] = target: InhA (Mycobacterium tuberculosis, UniProt P9WGR1); assay: InhA enzyme inhibition IC50 (NADH oxidation at 340 nm, DD-CoA substrate); format: biochemical, M. tuberculosis
Description: IC50 values were determined by measuring the enzyme activity at different inhibitor concentrations. The experimental data were analyzed using Equation 1, where I is the inhibitor concentration and Y is fraction activity. Y=1/(1+[I]/IC50) (1)
All experiments were carried out on a CARY-100 Bio (Varian) spectrophotometer at 25° C. The buffer used was 30 mM PIPES, 150 mM NaCl, pH 6.8. Kinetic parameters were determined spectrophotometrically by following the oxidation of NADH to NAD^+ at 340 nm (ε=6.3 nM^−1 cm^−1). Trans-2-dodecenoyl-CoA (DD-CoA) was used as a substrate. Two sets of conditions were used for the IC50 determinations.
For inhibitors with IC50 values above 0.2 μM, reaction mixtures contained 250 μM NADH, 74 nM InhA, and 25 μM DD-CoA. […] In each case, the inhibitor concentration was varied over the range of 0-200 μM.

[2] = test system: Mycobacterium tuberculosis strain H37Rv; assay: MIC99 microplate dilution growth inhibition; format: cell-based; settings: M. tuberculosis H37Rv, 7H9 broth, 37° C., 3-5 days, lowest concentration inhibiting visible growth
[3] = InhA, 250 μM NADH, DD-CoA substrate, 25° C., pH 6.8, read-out: IC50

Chain of InhA (P9WGR1 whole entry, looked up): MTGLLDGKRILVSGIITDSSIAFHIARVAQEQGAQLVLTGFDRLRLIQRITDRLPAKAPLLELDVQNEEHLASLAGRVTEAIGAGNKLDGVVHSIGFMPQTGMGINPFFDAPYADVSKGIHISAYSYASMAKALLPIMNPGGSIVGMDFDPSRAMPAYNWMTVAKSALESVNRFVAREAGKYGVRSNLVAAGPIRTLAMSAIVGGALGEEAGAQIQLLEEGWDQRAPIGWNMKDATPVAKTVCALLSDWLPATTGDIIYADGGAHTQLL

| Structure (SMILES) | pIC50 [1, 3] | MIC99 [2] | pIC50 [1] |
| --- | --- | --- | --- |
| CCCCCCCCc1ccc(Oc2ccccc2)c(O)c1 [-(n-C8H17), 5-octyl-2-phenoxyphenol] | 8.30 |  |  |
| CCCCCCc1ccc(Oc2ccccc2)c(O)c1 [-(n-C6H13), 5-hexyl-2-phenoxyphenol] |  | 0.93 µM (≈ 0.251 µg/mL) | 8.00 |
| CCc1ccc(Oc2ccccc2)c(O)c1 [—C2H5, 5-ethyl-2-phenoxyphenol] | 5.70 | 3.75 µM (≈ 0.803 µg/mL) |  |
| CCCCCc1ccc(Oc2ccccc2)c(O)c1 [-(n-C5H11), 5-pentyl-2-phenoxyphenol] | 7.77 | 0.93 µM (≈ 0.238 µg/mL) |  |
| CCCCc1ccc(Oc2ccccc2)c(O)c1 [-(n-C4H9), 5-butyl-2-phenoxyphenol] | 7.10 | 0.93 µM (≈ 0.225 µg/mL) |  |
